Reference: article PMC8869358, “High-Throughput Chemical Screening and Structure-Based Models to Predict hERG Inhibition” (Biology, 2022)
Structures can show the parent of a compound that is named as a salt.

Target: hERG (Homo sapiens, UniProt Q12809)
Experiment: cell-based
Settings: (-LOG10(IC50), µM)

hERG, sequence (Q12809 whole entry): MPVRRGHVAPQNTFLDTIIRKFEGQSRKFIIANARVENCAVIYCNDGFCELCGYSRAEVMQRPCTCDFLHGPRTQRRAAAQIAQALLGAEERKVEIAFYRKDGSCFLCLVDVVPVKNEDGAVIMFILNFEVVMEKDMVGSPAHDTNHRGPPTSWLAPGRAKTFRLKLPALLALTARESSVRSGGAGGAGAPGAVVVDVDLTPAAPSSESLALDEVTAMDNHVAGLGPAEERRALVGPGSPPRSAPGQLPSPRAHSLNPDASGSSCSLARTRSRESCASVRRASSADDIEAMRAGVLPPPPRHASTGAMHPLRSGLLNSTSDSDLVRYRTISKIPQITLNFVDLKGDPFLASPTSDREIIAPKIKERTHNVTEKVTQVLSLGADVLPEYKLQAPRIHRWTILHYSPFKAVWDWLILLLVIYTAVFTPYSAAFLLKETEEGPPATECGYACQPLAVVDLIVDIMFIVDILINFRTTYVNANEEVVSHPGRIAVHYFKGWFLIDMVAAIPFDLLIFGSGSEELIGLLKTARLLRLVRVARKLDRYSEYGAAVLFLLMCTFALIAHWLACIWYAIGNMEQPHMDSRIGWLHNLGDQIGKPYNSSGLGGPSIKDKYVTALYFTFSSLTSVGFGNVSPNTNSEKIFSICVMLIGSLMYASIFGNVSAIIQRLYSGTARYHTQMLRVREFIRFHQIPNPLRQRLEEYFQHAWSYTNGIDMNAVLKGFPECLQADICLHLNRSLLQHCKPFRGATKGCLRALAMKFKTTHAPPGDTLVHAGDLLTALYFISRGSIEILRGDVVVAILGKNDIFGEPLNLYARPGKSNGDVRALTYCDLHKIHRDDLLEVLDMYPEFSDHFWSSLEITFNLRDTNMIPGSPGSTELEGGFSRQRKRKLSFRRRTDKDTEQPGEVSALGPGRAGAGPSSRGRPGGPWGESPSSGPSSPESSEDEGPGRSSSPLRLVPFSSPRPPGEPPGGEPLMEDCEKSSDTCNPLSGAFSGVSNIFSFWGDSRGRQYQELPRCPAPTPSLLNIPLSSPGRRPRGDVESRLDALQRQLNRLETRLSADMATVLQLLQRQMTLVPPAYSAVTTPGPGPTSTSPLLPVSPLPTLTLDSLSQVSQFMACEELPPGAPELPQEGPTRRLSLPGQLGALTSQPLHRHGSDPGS

Compound | IC50
CCC(C)Nc1c([N+](=O)[O-])cc(C(C)(C)C)cc1[N+](=O)[O-] (centres unmarked) [Butralin] | 23.6 µM
CC(CN1c2ccccc2Sc2ccccc21)N(C)C (centres unmarked) [Promethazine] | 19.7 µM
CCCCC(CC)C(=O)OCCOCCOCCOCCOC(=O)C(CC)CCCC (centres unmarked) [Tetraethylene glycol di(2-ethylhexanoate)] | 11 µM
CCCCCC(=O)O[C@]1(C(C)=O)CC[C@H]2[C@@H]3CCC4=CC(=O)CC[C@]4(C)[C@H]3CC[C@@]21C [17-((1-Oxohexyl)oxy)pregn-4-ene-3,20-dione] | 22.6 µM
CC(C)Nc1cccnc1N1CCN(C(=O)c2cc3cc(NS(C)(=O)=O)ccc3[nH]2)CC1 [Delavirdine] | 11.1 µM
O=C(OCCOCCO)c1ccccc1Nc1cccc(C(F)(F)F)c1 [Etofenamate] | 13.4 µM
CCCOC/C(=N\c1ccc(Cl)cc1C(F)(F)F)n1ccnc1 [Triflumizole] | 36 µM
C[C@]12CC[C@H]3[C@@H](CCC4=CC(=O)CC[C@@H]43)[C@@H]1CC[C@@H]2OC(=O)CCC1CCCCC1 [Nandrolone cyclohexylpropionate] | 15.1 µM
CCC(C)c1cc(C(C)(C)C)c(O)c(C(C)(C)C)c1 (centres unmarked) [4-(Butan-2-yl)-2,6-di-tert-butylphenol] | 8.54 µM
CCCN(CCC)c1c([N+](=O)[O-])cc(C(F)(F)F)c(N)c1[N+](=O)[O-] [Prodiamine] | 37.3 µM
NCc1cccc(C2CCN(C(=O)c3ccc(C#Cc4ccccc4F)o3)CC2)c1 [AVE5638] | 9.77 µM
CCN1CCCC(OC(=O)C(c2ccccc2)c2ccccc2)C1 (centres unmarked) [Crapinon] | 5.35 µM
Cc1ccc(S(=O)(=O)C(I)I)cc1 [Diiodomethyl 4-methylphenyl sulfone] | 46.2 µM
Nc1ccc(Oc2ccc(Cl)cc2)cc1 [4-Chloro-4'-aminodiphenyl ether] | 41.1 µM
CCN(CC)CCOC(=O)C(Cc1cccc2ccccc12)CC1CCCO1 (centres unmarked) [Nafronyl oxalate] | 8.99 µM
O=C1c2c(O)ccc(Nc3ccc(CCO)cc3)c2C(=O)c2c([N+](=O)[O-])ccc(O)c21 [C.I. Disperse Blue 27] | 43.6 µM

Compound | IC50
c1ccc(C[P+](c2ccccc2)(c2ccccc2)c2ccccc2)cc1 [Benzyltriphenylphosphonium chloride] | 2.27 µM
S=C=NCCc1ccccc1 [Phenethyl isothiocyanate] | 16.8 µM
O=C(N[C@@H](c1ccccc1)[C@@H]1CCCCN1)c1cccc(C(F)(F)F)c1Cl [SSR504734] | 50.9 µM
CCc1cc(SCc2sc(-c3ccc(C(F)(F)F)cc3)nc2CN2CCN(c3ccc(OC)cc3)CC2)ccc1OCC(=O)O [PharmaGSID_47315] | 3.34 µM
CSc1ccc2c(c1)C(N1CCN(C)CC1)Cc1ccccc1S2 (centres unmarked) [Metitepine] | 1.15 µM
CCc1cccc(N(C)C(N)=Nc2cccc3ccccc23)c1 [Aptiganel hydrochloride] | 10.3 µM
CC(C)=CC1C(C(=O)OCN2C(=O)C3=C(CCCC3)C2=O)C1(C)C (centres unmarked) [Tetramethrin] | 40.4 µM
O=C1C=CC(=O)N1c1ccccc1 [1-Phenyl-1H-pyrrole-2,5-dione] | 50.9 µM
CN1CCC(N(Cc2ccccc2)c2ccccc2)CC1 [Bamipine] | 3.94 µM
CN(Cc1ccc(C(C)(C)C)cc1)Cc1cccc2ccccc12 [Butenafine] | 12 µM
CCN(CCN)c1cccc(C)c1 [N-Ethyl-N-(3-methylphenyl)ethane-1,2-diamine] | 49 µM
Cc1ccsc1/C=C/C1=NCCCN1C [Morantel tartrate] | 19.7 µM
Oc1ccc2[nH]cc(CCCCN3CC=C(c4ccccc4)CC3)c2c1 [Roxindole] | 3.38 µM
CN(c1nccc(=O)[nH]1)C1CCN(c2nc3ccccc3n2Cc2ccc(F)cc2)CC1 [Mizolastine] | 2.21 µM
O=C(Nc1ccccc1)N(Cc1ccc(Cl)cc1)C1CCCC1 [Pencycuron] | 33.4 µM
CC(C)COC(=O)COc1cc(Cl)c(Cl)cc1Cl [Isobutyl (2,4,5-trichlorophenoxy)acetate] | 41.1 µM
